Test results: patent US20250098679A1, “HERBICIDAL PYRIDONE DERIVATIVES” (SYNGENTA CROP PROTECTION AG, priority 2021, published 2025)

Assays:
Type in all cases: in vivo
Zea mays (ZEAMX) [1] = assay: Pre-emergence Test, Zea mays (ZEAMX); conditions: evaluated after 13 days
[2] = tested on: Echinochloa crus-galli (ECHCG); assay: Post-emergence Test, Echinochloa crus-galli (ECHCG); set-up: key to percentage damage caused to the plant, ECHCG (five-point scale): 5=81-100%, 4=61-80%, 3=41-60%, 2=21-40%, 1=0-20% damage; conditions: 250 g/Ha, evaluated after 13 days
Summary of the method: (§1)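 Scores are percentage plant damage on a 1–5 scale (1=0-20%, 2=21-40%, 3=41-60%, 4=61-80%, 5=81-100%), read 13 days after treatment. Pots received a spray at 1000 g/ha unless otherwise stated, formulated in acetone/water (50:50) containing 0.5% Tween 20.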

[3] = tested on: Amaranthus retoflexus (AMARE); assay: Post-emergence Test, Amaranthus retoflexus (AMARE); set-up: key to percentage damage caused to the plant, AMARE (five-point scale): 5=81-100%, 4=61-80%, 3=41-60%, 2=21-40%, 1=0-20% damage; conditions: evaluated after 13 days
Summary of the method: as §1

[4] = tested on: Ipomoea hederacea (IPOHE); assay: Pre-emergence Test, Ipomoea hederacea (IPOHE); conditions: evaluated after 13 days
[5] = tested on: Amaranthus palmeri (AMAPA); assay: Post-emergence Test, Amaranthus palmeri (AMAPA); set-up: key: 5=81-100%, 4=61-80%, 3=41-60%, 2=21-40%, 1=0-20% damage; conditions: evaluated after 13 days
Summary of the method: as §1

Zea mays (ZEAMX) [6] = assay: Post-emergence Test, Zea mays (ZEAMX); set-up: key to percentage damage caused to the plant, ZEAMX (five-point scale): 5=81-100%, 4=61-80%, 3=41-60%, 2=21-40%, 1=0-20% damage; conditions: evaluated after 13 days
Summary of the method: as §1

[7] = tested on: Echinochloa crus-galli (ECHCG); assay: Pre-emergence Test, Echinochloa crus-galli (ECHCG); conditions: evaluated after 13 days
[8] = tested on: Amaranthus palmeri (AMAPA); assay: Pre-emergence Test, Amaranthus palmeri (AMAPA); conditions: evaluated after 13 days
[9] = tested on: Amaranthus retoflexus (AMARE); assay: Pre-emergence Test, Amaranthus retoflexus (AMARE); conditions: evaluated after 13 days
[10] = tested on: Ipomoea hederacea (IPOHE); assay: Post-emergence Test, Ipomoea hederacea (IPOHE); set-up: key to percentage damage caused to the plant, IPOHE (five-point scale): 5=81-100%, 4=61-80%, 3=41-60%, 2=21-40%, 1=0-20% damage; conditions: evaluated after 13 days
Summary of the method: as §1

Setaria faberi (SETFA) = assay: Post-emergence Test, Setaria faberi (SETFA); set-up: key to percentage damage caused to the plant, SETFA (five-point scale): 5=81-100%, 4=61-80%, 3=41-60%, 2=21-40%, 1=0-20% damage; conditions: 1000 g/ha, evaluated after 13 days
Summary of the method: as §1

SMILES	Pre-emergence Test ZEAMX, percentage damage caused to the plant (five-point scale) (Zea mays (ZEAMX) [1]; 250 g/Ha (*))	percentage damage caused to the plant, ECHCG (five-point scale) [2]	percentage damage caused to the plant, AMARE (five-point scale) ([3]; 250 g/Ha)	Pre-emergence Test IPOHE, percentage damage caused to the plant (five-point scale) ([4]; 250 g/Ha (*))	percentage damage caused to the plant, AMAPA (five-point scale) ([5]; 250 g/Ha)	percentage damage caused to the plant, ZEAMX (five-point scale) (Zea mays (ZEAMX) [6]; 250 g/Ha)	Pre-emergence Test ECHCG, percentage damage caused to the plant (five-point scale) ([7]; 250 g/Ha (*))	Pre-emergence Test AMAPA, percentage damage caused to the plant (five-point scale) ([8]; 250 g/Ha (*))	Pre-emergence Test AMARE, percentage damage caused to the plant (five-point scale) ([9]; 250 g/Ha (*))	percentage damage caused to the plant, IPOHE (five-point scale) ([10]; 250 g/Ha)	Pre-emergence Test ZEAMX, percentage damage caused to the plant (five-point scale) (Zea mays (ZEAMX) [1]; 1000 g/ha)	percentage damage caused to the plant, AMARE (five-point scale) ([3]; 1000 g/ha)	Pre-emergence Test IPOHE, percentage damage caused to the plant (five-point scale) ([4]; 1000 g/ha)	percentage damage caused to the plant, AMAPA (five-point scale) ([5]; 1000 g/ha)	percentage damage caused to the plant, ZEAMX (five-point scale) (Zea mays (ZEAMX) [6]; 1000 g/ha)	Pre-emergence Test ECHCG, percentage damage caused to the plant (five-point scale) ([7]; 1000 g/ha)	Pre-emergence Test AMAPA, percentage damage caused to the plant (five-point scale) ([8]; 1000 g/ha)	Pre-emergence Test AMARE, percentage damage caused to the plant (five-point scale) ([9]; 1000 g/ha)	percentage damage caused to the plant, IPOHE (five-point scale) ([10]; 1000 g/ha)	percentage damage caused to the plant, SETFA (five-point scale) (Setaria faberi (SETFA))
CCn1c(Cn2ncc(C(F)(F)F)n2)cc(=O)c(C(=O)O)c1-c1ccc(Cl)c(Cl)c1 [Compound 189, 2-(3,4-dichlorophenyl)-1-ethyl-4-oxo-6-[[4-(trifluoromethyl)triazol-2-yl]methyl]pyridine-3-carboxylic acid]	4 (4=61-80%)	4 (4=61-80%)	4 (4=61-80%)	3 (3=41-60%)	5 (5=81-100%)	4 (4=61-80%)	5 (5=81-100%)	2 (2=21-40%)	2 (2=21-40%)	4 (4=61-80%)										
CCn1c(Cn2nccc2COC)cc(=O)c(C(=O)O)c1-c1ccc(Cl)c(Cl)c1 [Compound 190, 2-(3,4-dichlorophenyl)-1-ethyl-6-[[5-(methoxymethyl)pyrazol-1-yl]methyl]-4-oxo-pyridine-3-carboxylic acid]	1 (1=0-20%)	3 (3=41-60%)	1 (1=0-20%)	1 (1=0-20%)	1 (1=0-20%)	0	1 (1=0-20%)	0	0	1 (1=0-20%)	2 (2=21-40%)	2 (2=21-40%)	3 (3=41-60%)	1 (1=0-20%)	3 (3=41-60%)	4 (4=61-80%)	1 (1=0-20%)	1 (1=0-20%)	3 (3=41-60%)	4 (4=61-80%)
CCn1c(Cn2ccc(OCC(F)F)n2)cc(=O)c(C(=O)O)c1-c1ccc(Cl)c(Cl)c1 [Compound 165, 2-(3,4-dichlorophenyl)-6-[[3-(2,2-difluoroethoxy)pyrazol-1-yl]methyl]-1-ethyl-4-oxo-pyridine-3-carboxylic acid]	1 (1=0-20%)	3 (3=41-60%)	1 (1=0-20%)	3 (3=41-60%)	1 (1=0-20%)	2 (2=21-40%)	4 (4=61-80%)	0	0	4 (4=61-80%)	4 (4=61-80%)	3 (3=41-60%)	4 (4=61-80%)	2 (2=21-40%)	3 (3=41-60%)	5 (5=81-100%)	2 (2=21-40%)	1 (1=0-20%)	4 (4=61-80%)	4 (4=61-80%)
